Data on one compound can be found in paper PMC9004346, “Development of small cyclic peptides targeting the CK2α/β interface” (Chemical Communications (Cambridge, England), 2022).

*1 amine or outer side, *2 acyl side, *3 side chain or, on linkers, in order; H or OH if unused. Where a SMILES comes first, the peptide text is derived from it. Bridges are numbered along the chain shown (N, C = ends). [ ]: non-standard residue; d: D form. Trp(2-yl) = O=C([C@H](Cc1c([*:3])[nH]c2ccccc12)N[*:1])[*:2]; hCys = N[C@@H](CCS)C(=O)O

The IC50 is the concentration needed to halve the response being measured. Lower therefore signals greater potency.

A short description of one data set: Serum stability test. Type of data set: in vitro ADME. The note with it: 20% human serum in PBS, 37 °C, monitored over 24 h. The protocol:
1.6.3 Serum stability test
500 μL of PBS buffer supplemented with 20% (v/v) of human serum was allocated into an Eppendorf tube and temperature kept at 37 °C for 15 minutes before commencing the experiment. 5 µL of the peptide from 10 mM stock solution in DMSO was added. Caffeine was added as an internal standard (10 μL of a 15 mg/mL solution in MQ water). At specific intervals, 50 µL of the reaction mixture was taken and quenched with 100 µL of a 1:1 mixture of 96% Ethanol:DMSO. The suspension was spun at 13400 g for 10 minutes. 100 μL of the supernatant was analysed using C-18 HPLC with an eluting gradient 5-95% MeCN (0.05% TFA) in water (0.05% TFA) over 15 minutes (90 μL injection volume).
Percentage of intact starting peptide was monitored over 24 h (calculated as the ratio of the area of […]
the peak corresponding to the intact peptide to the area of the peak of caffeine). The experiment was […]
1 M. M. Wiedmann, Y. S. Tan, Y. Wu, S. Aibara, W. Xu, H. F. Sore, C. S. Verma, L. Itzhaki, M.
Stewart, J. D. Brenton and D. R. Spring, Angew. Chemie Int. Ed., 2017, 56, 524–529.
3 G. T. Potter, G. C. Jayson, G. J. Miller and J. M. Gardiner, J. Org. Chem., 2016, 81, 3443–3446.
4 J. Iegre, P. Brear, D. J. Baker, Y. S. Tan, E. L. Atkinson, H. F. Sore, D. H. O’ Donovan, C. S. Verma,
7 C. Puig Duran, F. Albericio Palomera, M. Gongora Benitez, M. Paradis Bas, L. Miret Casals, I. […]

The target of another data set is T1, CK2α (Homo sapiens, UniProt P68400).
T1 construct: 571 nM CK2α_WT (residues 2-329); made in house
T1 sequence (P68400 2-329): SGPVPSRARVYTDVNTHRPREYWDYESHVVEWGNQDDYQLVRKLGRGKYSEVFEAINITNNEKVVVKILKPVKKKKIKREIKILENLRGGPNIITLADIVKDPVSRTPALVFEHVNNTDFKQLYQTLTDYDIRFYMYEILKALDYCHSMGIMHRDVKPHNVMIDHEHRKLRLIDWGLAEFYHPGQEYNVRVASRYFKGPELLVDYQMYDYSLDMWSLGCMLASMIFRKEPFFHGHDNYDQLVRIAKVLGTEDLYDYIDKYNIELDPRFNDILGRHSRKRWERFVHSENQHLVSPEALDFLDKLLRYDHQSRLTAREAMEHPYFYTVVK
Put plainly: Fluorescence polarisation (FP) assay: displacement of a CK2β-like fluorescent probe from CK2α. Type of data set: binding. The following applies: CK2α_WT (residues 2-329), fluorescein-labelled CK2β-based peptide probe, ±SEM. From the text: To assess the ability of the synthesised linear peptides to displace a CK2β-like fluorescent probe from CK2α, a fluorescence polarisation (FP) assay was used (Table 1, ESI 1.3.2 and Fig. S2, ESI ^†). […]
1.5 Biophysical experiments
1.5.1 Protein expression and purification
Three constructs of CK2α were used in this study. For FP assays, CK2α_WT was used (residues 2-329). […]
These constructs were cloned, expressed, and purified as previously described.19 1.5.2 Fluorescence polarisation
IC50’s were determined using a PHERAstar FS plate reader (BMG labtech). The fluorescein probe was measured using 485 nm excitation and 530 nm emission. The fluorescein probe was covalently linked to the N-terminus of the linear CK2β-based peptide RLYGFKIHPMAYQLQ. IC50’s were measured using 500, 167, 16.7, 8.33 and 0 μM of the test peptide at a constant concentration of DMSO. P7C8, P8C9, P+L and P+ were tested at concentrations of 50.0, 16.7, 1.67, 0.833 and 0 μM due to their higher potencies. The experiments were performed in a Corning 384-well plate with final concentrations of 571 nM CK2α_WT (residues 2-329), 7.4 μM fluorescent peptide (fluorescein probe was covalently linked to the N-terminus of the linear CK2β-based peptide RLYGFKIHPMAYQLQ), 200 mM NaCl, 40mM TRIS, 20 mM MgCl2 and pH 7.5. The plates were read after a 45 min incubation period. […]
(Polarisation of emitted light reports the rotation of a fluorescent probe.)

For the compound `CC(=O)N[C@H]1CCSc2[nH]c3ccccc3c2C[C@@H](C(N)=O)NC(=O)[C@H](CCCCN)NC(=O)[C@H](Cc2ccccc2)NC(=O)CNC(=O)[C@H](Cc2ccc(O)cc2)NC(=O)[C@H](CC(C)C)NC(=O)[C@H](CCCNC(=N)N)NC1=O` [Peptide P8C9, (hC)C9RLYGFKWC9] (Ac-[hCys]RLYGFK[Trp(2-yl)]-NH2; thioether 1-8), the “Serum stability (in words)” value in “Serum stability test” is “fully stable in serum over 24 h”. On CK2α, this compound yielded a half-maximal inhibitory concentration (IC50) of 1700 ± 300 nM.
